The text below walks through data of patent publication US20250018019A1, “TREATMENT OF INTERFERON DRIVEN INFLAMMATION” (The Provost, Fellows, Foundation Scholars and the other …, priority 2023, published 2025).

One assay addresses T1, c-Fos (Mus musculus, UniProt P01101).
T1 construct: nuclear extracts were isolated using a Nuclear Extraction Kit; endogenous in cells; host or cells: mouse bone-marrow-derived macrophages (BMDMs), nuclear extract
Nature of the assay: c-Fos activity assay (AP1 transcription factor assay on nuclear extracts). Format: cell-based. As to conditions: BMDMs pre-treated 3 h, LPS 4 h. The protocol: BMDMs from 3 mice were plated in 10 cm dishes at 0.5×10^6 cells/mL and left overnight. Cells were pre-treated with FHIN1 or DMF (3 h) prior to LPS stimulation (4 h). Upon harvesting, nuclear extracts were isolated using a Nuclear Extraction Kit (ab113474) purchased from Abcam. Nuclear extracts were quantified via BCA assay and standardised. c-Fos relative activity was then quantified using the AP1 transcription factor assay purchased from Abcam (Ab207196) according to the manufacturers protocol.

Assay [1] concerns BMDMs. Briefly: ELISA of cytokine release from BMDMs. The class given is cell-based, mouse. The note with it: for IL-6 release / IL-10 release / TNF-α release: BMDMs pre-treated 3 h. The method, then: (§1) All compounds used DMSO as a vehicle except for 4-hydroxy tamoxifen (EtOH), NAC (PBS), and AOAA for tracing experiments (Media). LPS was used at a concentration of 100 ng/ml for indicated timepoints (2, 3, 4, 6, 8, 24, 48 h). FHIN1 (10 or 20 μM), MMF (50 or 100 μM), DMF (25 μM), AOAA (5 mM), oligomycin (10 μM), CCCP (50 μM) NAC (1 mM), and IMT1 (10 μM) pre-treatments were performed for 3 h prior the addition of LPS. Cells were treated with valinomycin (10 nM) 15 mins before LPS stimulation. Anti-CD210 or IgG control (10 μg/ml) antibodies were added to cells 1 h prior to LPS stimulation. Recombinant mouse IL-10 protein (100 ng/ml) was added to cells at the same time as LPS. Cells were treated with IFN-B1 (220 ng/ml) for 3 h. Cells were treated with C-178 (1 μM) 1 h prior to LPS stimulation or transfection with 2′3′-cGAMP (1.5 μg/ml) for 4 hrs to achieve cGAS-STING activation. Cells were treated with ODN 2088 (1 μM) for 1 hr prior to LPS stimulation or transfection with CPG ODN 1826 (1.5 μg/ml) to achieve TLR9 activation. 3 different timepoints of 4-hydroxy tamoxifen (TAM) (600 nM or 2 μM) or EtOH treatment were performed-these are specified in the individual figure legends. For ‘48 h’ treatments EtOH/TAM was added on day 5 of 6 during the BMDM differentiation protocol. On day 6 they were plated with EtOH/TAM (left overnight) and treated the following day. For ‘72 h’ treatments EtOH/TAM was added on day […] of 6 during the BMDM differentiation protocol. On day 6 they were plated with EtOH/TAM (left overnight) and treated the following day. For ‘96 h’ treatments EtOH/TAM was added on day […] of 6 during the BMDM differentiation protocol. On day 6 they were plated with EtOH/TAM and treated 2 days later.
Pre-designed silencer select siRNAs for Cgas (s103166), Tmem173 (s91058), Tlr3 (s100579), Tlr9 (s96268), As/(s99640), Tlr7 (s100720), Ddx58 (s106376), Ifih1 (s89787), Nrf2 (s70522), Atf4 (s62689) and negative control (4390843) were ordered from Thermo Fisher. siRNA sequences are given in Table S2. Cells were transfected with 50 nM siRNA using 5 μl lipofectamine RNAiMAX according to manufacturer's instructions (Thermo Fisher). Cells were transfected in medium without serum and antibiotics which was replaced with complete medium 8 hours later. Cells were subsequently left for at least a further 12 hours prior to treatment.
BMDMs were plated in the presence or absence of ultrapure ethidium bromide (100 ng/ml) and incubated for a further 6 days prior to treatment. Depletion of mtDNA was determined by genomic DNA isolation followed by qPCR using primers specific for areas of mitochondrial DNA (D-loop) and areas of mtDNA that are not inserted into nuclear DNA (Non-NUMT).
DuoSet ELISA kits for IL-1β, TNFα, IL-6, IL-10, and GDF15 were purchased from R&D Systems and were carried out according to the manufacturer's instructions with appropriately diluted cell supernatants added to each plate in duplicate or triplicate. IFN-β was determined using DuoSet ELISA kit from R&D Systems or Abcam (ab252363). Quantikine ELISA kit for IFN-β (R&D Systems) was used for determination of IFN-β concentration in serum samples and from human cells, and these were also carried out according to the manufacturer's instructions. Absorbance at 450 nm was quantified using a FLUOstar Optima plate reader. Corrected absorbance values were calculated by subtracting the background absorbance, and cytokine concentrations were subsequently obtained by extrapolation from a standard curve plotted on GraphPad Prism 9.2.0.
For orientation: In an ELISA, binding on a coated surface is turned into a signal by an enzyme label.

A further assay has as its system human PBMCs. Nature of the assay: ELISA of IFN-β release from human PBMCs. Format: cell-based. The note with it: human PBMCs pre-treated, LPS 4 h. The method, then:
Human blood samples from healthy donors were collected and processed at the School of Biochemistry and Immunology in TBSI (TCD). Blood samples were obtained anonymously and written informed consent for the use of blood for research purposes has been obtained from the donors. All the procedures involving experiments on human samples have been approved by the School of Biochemistry and Immunology Research Ethics Committee (TCD). Experiments were conducted according to the TCD guide on good research practice, which follows the guidelines detailed in the National Institutes of Health Belmont Report (1978) and the Declaration of Helsinki. […] The remaining pellet of mononuclear cells was resuspended, counted, and plated at 1×10^6 cells/ml in RPMI supplemented with FCS (10%) and penicillin/streptomycin (1%). […]
DuoSet ELISA kits for IL-1β, TNFα, IL-6, IL-10, and GDF15 were purchased from R&D Systems and were carried out according to the manufacturer's instructions with appropriately diluted cell supernatants added to each plate in duplicate or triplicate. IFN-β was determined using DuoSet ELISA kit from R&D Systems or Abcam (ab252363). […] Absorbance at 450 nm was quantified using a FLUOstar Optima plate reader. […]

The test system of assay [2] is BMDMs. Briefly: Flow cytometry, CellROX and TMRM staining. The note with it: LPS 4 h; for mitochondrial membrane potential (MMP), TMRM staining: BMDMs pre-treated, oligomycin 10 μM, CCCP 50 μM, valinomycin 10 nM, MMF 50 or 100 μM. Format: cell-based, mouse. The protocol: as §1
Cells were plated in 12-well plates and treated as desired. CellROX Green (5 μM, Thermo Fisher) or TMRM (20 nM, Thermo Fisher) was added to cells 30 mins prior to end of cell treatments. Cells were washed once in PBS and scraped into 200 μl FACS buffer (2 mM EDTA, 0.5% FCS in PBS). Acquisition of samples was performed on a BD Accuri C6 flow cytometer. The gating strategy used for all flow cytometry experiments consisted of debris exclusion by FSC-A vs SSC-A analysis and subsequent doublet exclusion by FSC-A vs FSC-H analysis. A sample gating strategy is provided in Supplementary FIG. 2. 10,000 cells was acquired per condition. Mean fluorescence intensity (MFI) was calculated for all cells in each condition using FlowJo v10.
(Flow cytometry measures light scatter and fluorescence of single cells or particles in a stream.)

Where a name gives a salt, the structure may show the parent alone.

T1 sequence (P01101 whole entry): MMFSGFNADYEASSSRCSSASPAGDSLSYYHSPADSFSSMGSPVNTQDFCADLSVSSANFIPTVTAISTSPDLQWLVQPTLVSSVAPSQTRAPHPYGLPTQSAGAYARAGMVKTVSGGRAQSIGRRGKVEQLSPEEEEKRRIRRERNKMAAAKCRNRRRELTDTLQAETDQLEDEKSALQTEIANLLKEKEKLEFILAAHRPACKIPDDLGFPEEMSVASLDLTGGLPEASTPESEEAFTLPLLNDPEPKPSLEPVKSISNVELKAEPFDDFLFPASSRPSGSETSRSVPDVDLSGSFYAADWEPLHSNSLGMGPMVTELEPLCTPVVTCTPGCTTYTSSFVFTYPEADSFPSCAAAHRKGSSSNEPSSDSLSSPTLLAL
T1 sequence (P05627 whole entry partner): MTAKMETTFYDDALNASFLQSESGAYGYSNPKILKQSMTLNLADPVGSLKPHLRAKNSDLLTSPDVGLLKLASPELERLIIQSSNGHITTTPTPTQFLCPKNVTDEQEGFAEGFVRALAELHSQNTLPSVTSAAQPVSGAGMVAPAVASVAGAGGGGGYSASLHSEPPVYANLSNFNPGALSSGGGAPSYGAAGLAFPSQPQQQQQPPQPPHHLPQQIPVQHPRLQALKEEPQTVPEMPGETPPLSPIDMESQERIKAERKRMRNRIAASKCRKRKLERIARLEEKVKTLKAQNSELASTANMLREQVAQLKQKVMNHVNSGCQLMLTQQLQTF

For `COC(=O)/C=C/C(=O)OC` [DMF, dimethyl fumarate], the c-Fos activation result at c-Fos is given as “strongly impaired”. In addition, in the assay on BMDMs [1] (LPS 4 h), the IL-6 release result is recorded as “reduced”, the IL-10 release result is “decreased” and the TNF-α release entry is on record as “increased”. Moreover, in the assay on human PBMCs, the “LPS-induced IFN-β release” value is recorded as “suppressed”. Further, the “mitochondrial membrane potential (MMP), TMRM staining” value with BMDMs [2] is reported as “no effect”.
For `CCOC(=O)[C@@]12CCCC=C1N(Cc1ccc(-c3ccccc3)cc1)C(=O)[C@H]2CC(=O)NC` [FHIN1, Fumarate hydratase-IN-1], the c-Fos activation result at c-Fos is reported as “strongly impaired”. In the assay on BMDMs [1] (LPS 4 h), the IL-6 release result was “reduced”, the IL-10 release result is recorded as “decreased” and the TNF-α release result is reported as “increased”. In the assay on BMDMs [1] (BMDMs pre-treated, LPS 4 h), the GDF15 release entry was “drove GDF15 release” and the “LPS-induced IFN-β release” value was “increase”. In addition, the TNF-α production entry with BMDMs [1] (BMDMs pre-treated, co-treated with recombinant IL-10 100 ng/ml, LPS 4 h) was “failed to impair STAT3 phosphorylation or augment TNF-α production”. The “LPS-induced IFN-β release in the presence of EtBr” value in the assay with BMDMs [1] (BMDMs treated with EtBr 100 ng/ml 6 days (mtDNA depletion), then FHIN1, LPS 4 h) is reported as “no longer boosted”. Besides, in the assay on BMDMs [1] (BMDMs, siRNA 50 nM, LPS 4 h), the “augmentation in IFN-β release with knockdown of Tlr3” value is recorded as “did not affect” and the “boost in IFN-β release with silencing of Tlr7, Ddx58 (RIG-I) or Ifih1 (MDA5)” value is “abrogated”. In addition, the “LPS-induced IFN-β release” value in the assay with human PBMCs was “boosted”. The “reactive oxygen species (ROS) production (CellROX MFI)” value with BMDMs [2] (BMDMs pre-treated 3 h) is “increased”. The “mitochondrial membrane potential (MMP), TMRM staining” value in the assay with BMDMs [2] is “significantly increased staining”.
